Source: patent US20240360146A1, “BRUTON'S TYROSINE KINASE AND MUTANT DEGRADER, COMPOSITION AND APPLICATION THEREOF” (HANGZHOU HEALZEN THERAPEUTICS CO., LTD., priority 2021, published 2024)

Target: T1, BTK (Homo sapiens, UniProt Q06187)
T1 construct: endogenous in cells; host or cells: Mino cells
Experiment: BTK degradation activity test in Mino cells
Format: cell-based
Details: 16 h incubation, Western blot or Elisa
Method: Mino cell line cells were seeded at 500,000 to 1,000,000 cells/well in a 6-well plate. The compounds were diluted to different concentrations and added to the plate, and after 16 h of incubation, cells were harvested. After lysing the cells, the total protein concentration in each well was determined using the BCA method. The amount of BTK was determined using Western blot or Elisa method. The amount of undegraded BTK protein at each drug concentration was compared with the amount of BTK protein in the blank control group to calculate the degradation rate. The degradation curve was drawn based on the degradation rate at each concentration, and the half degradation concentration (DC50) was calculated by fitting.

T1 sequence (Q06187 whole entry): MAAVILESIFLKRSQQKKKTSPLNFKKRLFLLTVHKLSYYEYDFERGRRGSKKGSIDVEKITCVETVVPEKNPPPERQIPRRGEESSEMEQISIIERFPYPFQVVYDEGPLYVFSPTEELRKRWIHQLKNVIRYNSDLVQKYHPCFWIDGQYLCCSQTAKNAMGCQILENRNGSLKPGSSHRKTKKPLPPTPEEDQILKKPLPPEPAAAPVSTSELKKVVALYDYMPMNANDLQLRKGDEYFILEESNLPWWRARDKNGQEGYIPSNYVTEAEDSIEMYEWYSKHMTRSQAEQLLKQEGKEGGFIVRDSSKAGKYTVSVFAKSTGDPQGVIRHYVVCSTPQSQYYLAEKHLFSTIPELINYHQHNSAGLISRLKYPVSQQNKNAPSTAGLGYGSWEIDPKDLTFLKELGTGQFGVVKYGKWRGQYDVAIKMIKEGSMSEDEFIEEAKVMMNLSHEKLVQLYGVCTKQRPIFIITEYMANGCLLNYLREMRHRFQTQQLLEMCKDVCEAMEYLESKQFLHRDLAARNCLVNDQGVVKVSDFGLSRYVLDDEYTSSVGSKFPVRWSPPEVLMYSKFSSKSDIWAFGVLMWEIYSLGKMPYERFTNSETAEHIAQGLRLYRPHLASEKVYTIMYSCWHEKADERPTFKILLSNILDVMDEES

Structure (SMILES) | DC50
CN1C(=O)N(C2CCCN(c3cnc(C(N)=O)c(Nc4ccc(C5(C)CCN(C6CN(c7ccc8c(c7)C(=O)N(C7CCC(=O)NC7=O)C8=O)C6)CC5)cc4)n3)C2)CC12CC2 (stereo not shown) [Compound 010, 3-((4-(1-(1-(2-(2,6-dioxopiperidin-3-yl)-1,3-dioxoisoindol-5-yl)azetidin-3-yl)-4-methylpiperidin-4-yl)phenyl)amino)-5-(3-(4-methyl-5-oxo-4,6-diazaspirocyclo[2.4]heptan-6-yl)piperidin-1-yl)pyrazin-2-carboxamide] | > 1 nM
NC(=O)c1nnc(N2CCCC(N3CCN(C4COC4)C3=O)C2)nc1Nc1ccc(C2CCN(CC3CCN(c4ccc5c(c4)C(=O)N(C4CCC(=O)NC4=O)C5=O)CC3)CC2)cc1 (stereo not shown) [Compound 062, 5-((4-(1-((1-(2-(2,6-dioxopiperidin-3-yl)-1,3-dioxoisoindol-5-yl)piperidin-4-yl)methyl)piperidin-4-yl)phenyl)amino)-3-(3-(3-(oxetan-3-yl)-2-oxoimidazolin-1-yl)piperidin-1-yl)-1,2,4-triazin-6-carboxamide] | < 1 nM
CN1CCN([C@@H]2CCCN(c3nnc(C(N)=O)c(Nc4ccc(N5CCN(CC6CCN(c7ccc(N8CCC(=O)NC8=O)cc7)CC6)C(=O)C5)c(F)c4)n3)C2)C1=O [Compound 235, (R)-5-((4-(4-((1-(4-(2,4-dioxotetrahydropyrimidin-1(2H)-yl)phenyl)piperidin-4-yl)methyl)-3-oxopiperazin-1-yl)-3-fluorophenyl)amino)-3-(3-(3-methyl-2-oxoimidazolidin-1-yl)piperidin-1-yl)-1,2,4-triazin-6-carboxamide] | < 1 nM
CN1CCN(C2CCCN(c3nnc(C(N)=O)c(Nc4ccc(N5CCN(CC6CCN(c7ccc8c(c7)C(=O)N(C7CCC(=O)NC7=O)C8=O)CC6)CC5)cc4)n3)C2)C1=O (stereo not shown) [Compound 082, 5-((4-(4-((1-(2-(2,6-dioxopiperidin-3-yl)-1,3-dioxoisoindol-5-yl)piperidin-4-yl)methyl)piperazin-1-yl)phenyl)amino)-3-(3-(3-methyl-2-oxoimidazolin-1-yl)piperidin-1-yl)-1,2,4-triazin-6-carboxamide] | < 1 nM
CN1CCN([C@@H]2CCCN(c3nnc(C(N)=O)c(Nc4ccc(N5CCN(CC6CCN(c7ccc(NC8CCC(=O)NC8=O)cn7)C6)CC5)c(F)c4)n3)C2)C1=O (stereo partly drawn) [Compound 201, 5-((4-(4-((1-(5-((2,6-dioxopiperidin-3-yl)amino)pyridin-2-yl)pyrrolidin-3-yl)methyl)piperazin-1-yl)-3-fluorophenyl)amino)-3-((R)-3-(3-methyl-2-oxoimidazolidin-1-yl)piperidin-1-yl)-1,2,4-triazin-6-carboxamide] | < 1 nM
CC1(c2ccc(Nc3nc(N4CCCC(N5CCN(C6COC6)C5=O)C4)cnc3C(N)=O)cc2)CCN(C2CN(c3ccc4c(c3)C(=O)N(C3CCC(=O)NC3=O)C4=O)C2)CC1 (stereo not shown) [Compound 002, 3-((4-(1-(1-(2-(2,6-dioxopiperidin-3-yl)-1,3-dioxoisoindol-5-yl)azetidine-3-yl)-4-methylpiperidin-4-yl)phenyl)amino)-5-(3-(3-(oxetan-3-yl)-2-oxoimidazolin-1-yl)piperidin-1-yl)pyrazin-2-carboxamide] | < 1 nM
CC(C)N1CCN(C2CC3CC2N(c2cnc(C(N)=O)c(Nc4ccc(C5CCN(C6CN(c7ccc8c(c7)C(=O)N(C7CCC(=O)NC7=O)C8=O)C6)CC5)cc4)n2)C3)C1=O (stereo not shown) [Compound 047, 3-((4-(1-(1-(2-(2,6-dioxopiperidin-3-yl)-1,3-dioxoisoindolin-5-yl)azetidin-3-yl)piperidin-4-yl)phenyl)amino)-5-(-6-(3-isopropyl-2-oxoimidazolin-1-yl)-2-azabicyclo[2.2.1]heptan-2-yl)pyrazin-2-carboxamide] | < 1 nM
